Data set [1] has as its target T1, HCV NS3 helicase NS3h_1b(con1) (Hepatitis C virus genotype 1b, UniProt Q9WMX2).
T1 construct: truncated C-terminally His-tagged NS3 proteins lacking the N-terminal protease, called NS3h; His-tag (C); made in house
Description: biochemical. In kind it is biochemical, hepatitis C virus genotype 1b(con1). Put shortly: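 Molecular beacon helicase assay with His-tagged recombinant NS3 and a Cy5/IBRQ-labelled partially duplex DNA substrate (25 bp) or Tye665-labelled RNA substrate (19 bp). Reactions started with 1 mM ATP. Screening read fluorescence before and 30 min after ATP (ex 643/em 670 nm). For IC50, 5% v/v DMSO was present, initial velocities came from first-order decay fits, and a Hill equation was applied.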

The subject of the next data set is MBHA DNA substrate. Nature of the data set: Modified FID assay, SYBR Green I. The class given is binding. As to conditions: for DNA binding (%): SYBR Green I-FID, average (±SD) percent bound at 100 μM; for FID (SG) % Displaced @ 100 μM / EC50: SYBR Green; for EC50: read-out: FID (SG) EC50 (converted). Put shortly:
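Fluorescent intercalator displacement with SYBR Green I (0.68 μM) in place of ethidium bromide and MBHA DNA at 0.32 μM. Normalized data fit to concentration-response equation; EC50 given as mean ± SD of three independent triplicate titrations.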

Another data set concerns Huh-7.5 cells. Nature of the data set: Cell viability assay ([…]-GLO). In kind it is cell-based, human. As to conditions: for Cell viability (% viable): 10 μM compound, triplicate, average ± SD. Put shortly: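 Huh-7.5 cells exposed to compound for 72 hours, washed, then lysed in a 1:1 mix of growth medium and […]-GLO reagent. After 30 minutes at 23° C., luminescence was read for 1 second as a measure of viability.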

In data set [2] the target is T2, E. coli SSB-Cy5-dT15 complex (Escherichia coli, UniProt P0AGE0).
T2 construct: purchased Promega
T2 sequence (P0AGE0 2-178, one chain of several): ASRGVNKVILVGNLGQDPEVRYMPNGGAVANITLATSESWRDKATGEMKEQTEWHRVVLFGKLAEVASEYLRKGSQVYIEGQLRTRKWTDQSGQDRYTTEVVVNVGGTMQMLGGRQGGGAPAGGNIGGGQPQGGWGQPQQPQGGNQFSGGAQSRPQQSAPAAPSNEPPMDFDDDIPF
Description: Escherichia coli SSB Cy5-dT15 binding assay (fluorescence polarization). As to conditions: for IC50: disruption of Cy5-dT15-SSB complex, read-out: Cy5-dT15-SSB Binding IC50; for inhibition at 100 µM: read-out: SSB % Displaced @ 100 μM; for EC50: read-out: SSB EC50. In outline:
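Fluorescence polarization with 5 nM Cy5-dT15 and 20 nM E. coli SSB in 25 mM MOPS pH 7.5, 1.25 mM MgCl2, BSA, Tween 20, DTT. Screening at 1% DMSO; IC50 runs at 5% DMSO. Excitation 635 nm, parallel and perpendicular emission at 667 nm.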
In general terms: Polarisation of emitted light reports the rotation of a fluorescent probe.

Where [3] appears, read: MBHA, DNA unwinding, mean ± SD of three titrations, read-out: Helicase IC50.
The mark [4] stands for this setting: genotype 1b (con1), read-out: Target Potency MBHA (IC50 avg., μM) 1b (con1).
Setting [5] is: standard HCV helicase MBHA (Table 9), read-out: DNA Unwinding IC50.
[6] abbreviates: DNA-based MBHA, genotype 1b, read-out: DNA Helicase NS3h_1b IC50 (μM) ± SD.

SMILES strings stand for the structures. Read-outs that look alike come from different tables or passages of the source.

T1 sequence (Q9WMX2 1192-1657): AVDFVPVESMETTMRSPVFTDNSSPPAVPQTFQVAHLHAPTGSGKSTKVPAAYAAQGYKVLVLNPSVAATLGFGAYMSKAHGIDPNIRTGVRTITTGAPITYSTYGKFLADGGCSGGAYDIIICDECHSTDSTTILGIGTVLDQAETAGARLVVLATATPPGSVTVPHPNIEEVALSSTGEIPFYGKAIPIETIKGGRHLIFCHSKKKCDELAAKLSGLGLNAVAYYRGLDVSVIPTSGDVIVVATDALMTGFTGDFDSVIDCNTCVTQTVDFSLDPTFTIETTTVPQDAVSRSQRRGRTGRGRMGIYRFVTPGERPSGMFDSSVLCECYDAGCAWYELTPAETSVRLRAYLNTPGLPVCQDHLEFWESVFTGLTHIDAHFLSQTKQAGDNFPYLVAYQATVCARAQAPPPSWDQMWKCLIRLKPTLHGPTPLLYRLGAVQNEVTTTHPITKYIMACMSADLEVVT

Take `Cc1ccc2nc(-c3ccc4nc(-c5ccc(NC(=O)c6ccc(NC(=O)OCC7c8ccccc8-c8ccccc87)cc6)cc5)sc4c3)sc2c1S(=O)(=O)O` [Compound 16, 2′-(4-(4-((((9H-fluoren-9-yl)methoxy)carbonyl)amino)benzamido)phenyl)-6-methyl-[2,6′-bibenzo[d]thiazole]-7-sulfonic acid]: the IC50 – broadly, the point on the concentration scale where inhibition reaches its midpoint – in data set [1] (setting [3]) came out at 5.4 ± 1 µM. In data set [1] (setting [4]), the IC50 worked out at 5.4 ± 1 µM. For the same compound, the IC50 in data set [1] (setting [5]) came out at 5 ± 1 µM. Besides, in the data set with MBHA DNA substrate, the “DNA binding (%)” value is reported as 76 ± 5%; the “FID (SG) % Displaced @ 100 μM” value is on record as 76 ± 5%; the EC50 – broadly, the midpoint of the concentration-response curve – is 6 ± 2 µM. Moreover, in the data set with Huh-7.5 cells, the “Cell Viability (% @ 10 μM)” value is 92 ± 4% and the “Cell viability (% viable)” value stood at 92 ± 4%. Further, in data set [2], the IC50 is 179 ± 239 µM, the inhibition at 100 µM came to 53% and the concentration giving a half-maximal response (EC50) was over 100 µM.
On to `Cc1ccc2nc(-c3ccc4nc(-c5ccc(NC(=O)c6cccc(Cl)c6)cc5)sc4c3)sc2c1S(=O)(=O)O` [Compound 17, 2′-(4-(3-chlorobenzamido)phenyl)-6-methyl-[2,6′-bibenzo[d]thiazole]-7-sulfonic acid], for which the IC50 in data set [1] (setting [6]) worked out at 3 ± 0.8 µM. Further, the IC50 in data set [1] (setting [3]) worked out at 2.6 ± 1 µM. In addition, in data set [1] (setting [4]), the IC50 was determined as 2.6 ± 1 µM. The IC50 in data set [1] (setting [5]) amounted to 3 ± 1 µM. Besides, in the data set with MBHA DNA substrate, the “DNA binding (%)” value worked out at 41 ± 11%, the “FID (SG) % Displaced @ 100 μM” value worked out at 41 ± 11% and the EC50 was over 100 µM. Further, in the data set with Huh-7.5 cells, the “Cell Viability (% @ 10 μM)” value is reported as 112 ± 4% and the “Cell viability (% viable)” value was found to be 112 ± 4%. In addition, in data set [2], the IC50 was determined as 201 ± 119 µM, the inhibition at 100 µM was determined as 47% and the EC50 was over 100 µM.
Take `Cc1ccc2nc(-c3ccc4nc(-c5ccc(NC(=O)c6ccc(Cl)c(Cl)c6)cc5)sc4c3)sc2c1S(=O)(=O)O` [Compound 18, 2′-(4-(3,4-dichlorobenzamido)phenyl)-6-methyl-[2,6′-bibenzo[d]thiazole]-7-sulfonic acid]: in data set [1] (setting [6]), the IC50 was 4 ± 1 µM. Also, the IC50 in data set [1] (setting [3]) came to 3.7 ± 1 µM. For the same compound, the IC50 in data set [1] (setting [4]) was 3.7 ± 1 µM. Besides, the IC50 in data set [1] (setting [5]) turned out to be 4 ± 1 µM. Further, in the data set on MBHA DNA substrate, the “DNA binding (%)” value amounted to 67 ± 12%, the “FID (SG) % Displaced @ 100 μM” value was found to be 67 ± 12% and the EC50 is 30 ± 32 µM. In addition, in the data set on Huh-7.5 cells, the “Cell Viability (% @ 10 μM)” value is recorded as 114 ± 7% and the “Cell viability (% viable)” value is 114 ± 7%. In data set [2], the IC50 was 128 ± 57 µM, the inhibition at 100 µM amounted to 53% and the EC50 is over 100 µM.
Consider `Cc1ccc2nc(-c3ccc4nc(-c5ccc(NC(=O)c6ccccc6C(F)(F)F)cc5)sc4c3)sc2c1S(=O)(=O)O` [Compound 19, 6-methyl-2′-(4-(2-(trifluoromethyl)benzamido)phenyl)-[2,6′-bibenzo[d]thiazole]-7-sulfonic acid], for which, in data set [1] (setting [3]), the IC50 came out at 14 ± 1 µM. Moreover, the IC50 in data set [1] (setting [4]) stood at 14.1 ± 1 µM. Further, the IC50 in data set [1] (setting [5]) was determined as 14 ± 1 µM. In the data set on MBHA DNA substrate, the “DNA binding (%)” value is listed as 30 ± 15%, the “FID (SG) % Displaced @ 100 μM” value came out at 30 ± 15% and the EC50 is over 100 µM. In the data set on Huh-7.5 cells, the “Cell Viability (% @ 10 μM)” value worked out at 112 ± 1% and the “Cell viability (% viable)” value came out at 112 ± 1%. In data set [2], the IC50 stood at 13 ± 2 µM, the inhibition at 100 µM was 92% and the EC50 amounted to 13 ± 2 µM.
On to `Cc1ccc2nc(-c3ccc4nc(-c5ccc(NC(=O)c6cccc(C(F)(F)F)c6)cc5)sc4c3)sc2c1S(=O)(=O)O` [Compound 20, 6-methyl-2′-(4-(3-(trifluoromethyl)benzamido)phenyl)-[2,6′-bibenzo[d]thiazole]-7-sulfonic acid], for which the IC50 in data set [1] (setting [3]) was found to be 20 ± 12 µM. Further, in data set [1] (setting [4]), the IC50 turned out to be 19.7 ± 12 µM. In addition, in the data set on MBHA DNA substrate, the “DNA binding (%)” value came to 46 ± 10%, the “FID (SG) % Displaced @ 100 μM” value is on record as 46 ± 10% and the EC50 was over 100 µM. Moreover, in the data set with Huh-7.5 cells, the “Cell Viability (% @ 10 μM)” value came to 121 ± 3% and the “Cell viability (% viable)” value is listed as 121 ± 3%. In data set [2], the inhibition at 100 µM turned out to be 23% and the EC50 is over 100 µM.
For the compound `Cc1ccc2nc(-c3ccc4nc(-c5ccc(NC(=O)c6c(F)cccc6C(F)(F)F)cc5)sc4c3)sc2c1S(=O)(=O)O` [Compound 21, 2′-(4-(2-fluoro-6-(trifluoromethyl)benzamido)phenyl)-6-methyl-[2,6′-bibenzo[d]thiazole]-7-sulfonic acid], the IC50 in data set [1] (setting [3]) came out at 17 ± 6 µM. Further, the IC50 in data set [1] (setting [4]) stood at 16.8 ± 6 µM. In addition, the IC50 in data set [1] (setting [5]) turned out to be 17 ± 6 µM. Further, in the data set with MBHA DNA substrate, the “DNA binding (%)” value is 66 ± 40%, the “FID (SG) % Displaced @ 100 μM” value turned out to be 66 ± 40% and the EC50 was 64 ± 34 µM. In the data set with Huh-7.5 cells, the “Cell Viability (% @ 10 μM)” value was found to be 122 ± 2% and the “Cell viability (% viable)” value was 122 ± 2%. In data set [2], the IC50 was determined as 13 ± 1 µM, the inhibition at 100 µM was 96% and the EC50 turned out to be 13 ± 1 µM.
For `Cc1ccc2nc(-c3ccc4nc(-c5ccc(NC(=O)c6cccc(C(F)(F)F)c6F)cc5)sc4c3)sc2c1S(=O)(=O)O` [Compound 22, 2′-(4-(2-fluoro-3-(trifluoromethyl)benzamido)phenyl)-6-methyl-[2,6′-bibenzo[d]thiazole]-7-sulfonic acid], the IC50 in data set [1] (setting [3]) was determined as 9.2 ± 3 µM. For the same compound, the IC50 in data set [1] (setting [4]) turned out to be 9.2 ± 3 µM. The IC50 in data set [1] (setting [5]) was 9 ± 3 µM. In addition, in the data set with MBHA DNA substrate, the “DNA binding (%)” value is reported as 49 ± 27%, the “FID (SG) % Displaced @ 100 μM” value is 49 ± 27% and the EC50 is over 100 µM. In the data set on Huh-7.5 cells, the “Cell Viability (% @ 10 μM)” value was 122 ± 1% and the “Cell viability (% viable)” value is reported as 122 ± 1%. For the same compound, in data set [2], the IC50 is 71 ± 13 µM, the inhibition at 100 µM came to 63% and the EC50 was 71 ± 13 µM.
Regarding `Cc1ccc2nc(-c3ccc4nc(-c5ccc(NC(=O)c6ccc(C(F)(F)F)c(F)c6)cc5)sc4c3)sc2c1S(=O)(=O)O` [Compound 23, 2′-(4-(3-fluoro-4-(trifluoromethyl)benzamido)phenyl)-6-methyl-[2,6′-bibenzo[d]thiazole]-7-sulfonic acid], the IC50 in data set [1] (setting [3]) worked out at 17 ± 17 µM. Also, in data set [1] (setting [4]), the 50% inhibitory concentration (IC50) amounted to 17.4 ± 17 µM. For the same compound, in data set [1] (setting [5]), the IC50 came out at 17 ± 17 µM. In the data set on MBHA DNA substrate, the “DNA binding (%)” value was 66 ± 18%, the “FID (SG) % Displaced @ 100 μM” value is 66 ± 18% and the EC50 was 28 ± 28 µM. For the same compound, in the data set with Huh-7.5 cells, the “Cell Viability (% @ 10 μM)” value is given as 129 ± 2% and the “Cell viability (% viable)” value was determined as 129 ± 2%. For the same compound, in data set [2], the IC50 worked out at 10 ± 1 µM, the inhibition at 100 µM was determined as 92% and the EC50 was 10 ± 1 µM.
As for `Cc1ccc2nc(-c3ccc4nc(-c5ccc(NC(=O)c6cc(C(F)(F)F)cc(C(F)(F)F)c6)cc5)sc4c3)sc2c1S(=O)(=O)O` [Compound 24, 2′-(4-(3,5-bis(trifluoromethyl)benzamido)phenyl)-6-methyl-[2,6′-bibenzo[d]thiazole]-7-sulfonic acid], the IC50 in data set [1] (setting [6]) is 22 ± 4.2 µM. Besides, the IC50 in data set [1] (setting [3]) turned out to be 22 ± 4 µM. Moreover, in data set [1] (setting [4]), the IC50 turned out to be 22.2 ± 4 µM. Further, the IC50 in data set [1] (setting [5]) stood at 22 ± 4 µM. Also, in the data set on MBHA DNA substrate, the “DNA binding (%)” value was determined as 43 ± 13%, the “FID (SG) % Displaced @ 100 μM” value came out at 43 ± 13% and the EC50 is 86 ± 210 µM. For the same compound, in the data set with Huh-7.5 cells, the “Cell Viability (% @ 10 μM)” value was 122 ± 5% and the “Cell viability (% viable)” value was 122 ± 5%. The “toxicity at highest concentration tested” value with Huh-7.5 cells (50 μM) is recorded as “not toxic”. In data set [2], the IC50 was 36 ± 7 µM, the inhibition at 100 µM stood at 73% and the EC50 turned out to be 36 ± 7 µM.

(Values after US9464064B2, “HCV helicase inhibitors and methods of use thereof” (University of Kansas, priority 2011, dated 2016).)
